In US20100216802A1, “PTERIDINE DERIVATIVES AS POLO-LIKE KINASE INHIBITORS USEFUL IN THE TREATMENT OF CANCER” (CHROMA THERAPEUTICS LTD., priority 2006, published 2010):
Where two headings read alike, the source gives them in different places.

How the values were obtained:
[1] = molecular target: T1, PLK1 (Homo sapiens, UniProt P53350); assay: PLK1 enzyme assay (Z'-LYTE, Invitrogen); format: biochemical
T1 construct: purchased Invitrogen (Paisley, UK)
Procedure: The ability of compounds to inhibit PLK-1 kinase activity was measured in an assay performed by Invitrogen (Paisley, UK). The Z′-LYTE™ biochemical assay employs a fluorescence-based, coupled-enzyme format and is based on the differential sensitivity of phosphorylated and non-phosphorylated peptides to proteolytic cleavage. The peptide substrate is labelled with two fluorophores—one at each end—that make up a FRET pair. In the primary reaction, the kinase transfers the gamma-phosphate of ATP to a single serine or threonine residue in a synthetic FRET-peptide. In the secondary reaction, a site-specific protease recognizes and cleaves non-phosphorylated FRET-peptides. Phosphorylation of FRET-peptides suppresses cleavage by the Development Reagent. Cleavage disrupts FRET between the donor (i.e., coumarin) and acceptor (i.e., fluorescein) fluorophores on the FRET-peptide, whereas uncleaved, phosphorylated FRET-peptides maintain FRET. A […] method, which calculates the ratio (the Emission Ratio) of donor emission to acceptor emission after excitation of the donor fluorophore at 400 nm, is used to quantitate reaction progress.
The assay is performed at an ATP concentration at, or close to, the Km. After the 60 minute Kinase Reaction incubation at RT, 5 μL of a 1:8 dilution of Development Reagent is added. The assay plate is incubated for a further 60 minutes at RT and read on a fluorescence plate reader.
Duplicate data points are generated from a ⅓ log dilution series of a stock solution of test compound in DMSO. Nine dilutions steps are made from a top concentration of 10 μM, and a ‘no compound’ blank is included. Data is collected and analysed using XLfit software from IDBS.

[2] = system: HCT 116 cell line; assay: Cell inhibition assay method A (WST-1, 120 hrs); format: cell-based; conditions: Homo sapiens, HCT-116, method A, read-out: Inhibitor Activity vs HCT 116 cell line (method A)
Procedure: (§1) Cell inhibition assays were carried out using either method A or method B
Cells were seeded in 96W tissue culture plates (1 well=30 mm^2) at a density of […] per well in 50 μL of the appropriate culture medium (see below). 24 hrs later […] of the compound prepared in the same medium was added as 4 fold dilutions to give final concentrations in the range 0.15 nM-2500 nM (n=6 for each concentration). The plates were then incubated at 37° C., 5% CO2 for 120 hrs. Cell proliferation was assessed using WST-1 (a metabolic indicator dye, Roche Cat no. 1 644 807) according to the manufacturers instructions. The results were calculated as percentage of vehicle response and IC50 values represent the concentration of compound that inhibited the vehicle response by 50%.
HCT-116 culture medium —Dulbeccos MEM (Sigma D6546) plus 10% heat inactivated fetal calf serum (Hyclone SH30071 Thermo Fischer Scientific) containing 2 mM Glutamine (Sigma cat no G-7513) and 50 U/ml Penicillin and Streptomycin Sulphate (Sigma Cat no P-0781).

[3] = system: U937 cell; assay: Cell inhibition assay method B (tritiated thymidine incorporation, 72 hrs); format: cell-based; conditions: Homo sapiens, U-937, read-out: Inhibition of U937 cell proliferation (IC50, nM) (method B)
Procedure: as §1
The plates were then incubated at 37° C., 5% CO2 for 72 hrs.
A tritiated thymidine incorporation assay was used as a measure of cell proliferation. In short, cells were incubated with 0.4 μCi/well for 4 hrs before harvesting onto filtermats. These were dried, meltilex scintillation sheets melted on, then sealed in bags and ^3H emission counted on a Trilux microbeta counter.

[4] = ATP at or close to Km, read-out: Inhibitor Activity vs PLK1

T1 sequence (P53350 whole entry): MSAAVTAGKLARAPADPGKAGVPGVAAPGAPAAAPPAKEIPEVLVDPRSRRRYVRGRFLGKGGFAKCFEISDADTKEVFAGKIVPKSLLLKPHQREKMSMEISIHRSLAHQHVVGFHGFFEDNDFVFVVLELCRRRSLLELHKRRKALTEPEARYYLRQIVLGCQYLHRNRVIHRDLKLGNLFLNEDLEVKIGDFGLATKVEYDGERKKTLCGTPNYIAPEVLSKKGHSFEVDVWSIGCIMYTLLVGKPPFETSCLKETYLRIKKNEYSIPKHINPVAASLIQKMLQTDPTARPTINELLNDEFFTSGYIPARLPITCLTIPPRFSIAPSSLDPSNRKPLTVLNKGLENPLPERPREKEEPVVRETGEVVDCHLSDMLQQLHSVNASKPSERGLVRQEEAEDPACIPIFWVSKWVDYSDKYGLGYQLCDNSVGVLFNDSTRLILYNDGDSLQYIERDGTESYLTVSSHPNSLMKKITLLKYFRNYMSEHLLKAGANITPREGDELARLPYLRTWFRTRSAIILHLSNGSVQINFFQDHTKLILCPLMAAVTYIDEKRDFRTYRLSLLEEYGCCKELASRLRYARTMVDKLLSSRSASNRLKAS

Row | SMILES | IC50 [1, 4] [nM] | IC50 [2] [nM] | IC50 ([1]; ester (for Compound 1: the compound itself, one cell spans ester/acid), read-out: Inhibition of PLK (IC50, nM) ester) [nM] | IC50 [3] [nM]
1 | CC[C@@H]1C(=O)N(C)c2cnc(Nc3ccc(C(=O)N4CCNC(C(=O)OC5CCCC5)C4)cc3OC)nc2N1C1CCCC1 (stereo partly drawn) [Example 13, Cyclopentyl 4-(4-{[(7R)-8-cyclopentyl-7-ethyl-5-methyl-6-oxo-5,6,7,8-tetrahydropteridin-2-yl]amino}-3-methoxybenzoyl)piperazine-2-carboxylate] | < 100 | 100 to 500 | – | –
2 | CC[C@@H]1C(=O)N(C)c2cnc(Nc3ccc(C(=O)NCCN4CCNC(C(=O)OC5CCCC5)C4)cc3OC)nc2N1C1CCCC1 (stereo partly drawn) [Example 14, Cyclopentyl 4-{2-[(4-{[(7R)-8-cyclopentyl-7-ethyl-5-methyl-6-oxo-5,6,7,8-tetrahydropteridin-2-yl]amino}-3-methoxybenzoyl)amino]ethyl}piperazine-2-carboxylate] | < 100 | < 100 | – | –
3 | CC[C@@H]1C(=O)N(C)c2cnc(Nc3ccc(C(=O)NCCN4CCNC(C(=O)OC(C)(C)C)C4)cc3OC)nc2N1C1CCCC1 (stereo partly drawn) [Example 15, tert-butyl 4-{2-[(4-{[(7R)-8-cyclopentyl-7-ethyl-5-methyl-6-oxo-5,6,7,8-tetrahydropteridin-2-yl]amino}-3-methoxybenzoyl)amino]ethyl}piperazine-2-carboxylate] | < 100 | < 100 | – | –
4 | CC[C@@H]1C(=O)N(C)c2cnc(Nc3ccc(C(=O)NC4CCN(CC[C@H](N)C(=O)OC5CCCC5)C4)cc3OC)nc2N1C1CCCC1 (some centres unmarked) [Example 16] | < 100 | < 100 | – | –
5 | CC[C@@H]1C(=O)N(C)c2cnc(Nc3ccc(C(=O)NC4CCN(CC[C@@H](N)C(=O)OC5CCCC5)C4)cc3OC)nc2N1C1CCCC1 (stereo partly drawn) [Example 17, Cyclopentyl (2R)-2-amino-4-{3-[(4-{[(7R)-8-cyclopentyl-7-ethyl-5-methyl-6-oxo-5,6,7,8-tetrahydropteridin-2-yl]amino}-3-methoxybenzoyl)amino]pyrrolidin-1-yl}butanoate] | < 100 | < 100 | – | –
6 | CC[C@@H]1C(=O)N(C)c2cnc(Nc3ccc(C(=O)NC4C5CN(CC[C@H](N)C(=O)OC6CCCC6)CC54)cc3OC)nc2N1C1CCCC1 (stereo partly drawn) [Example 18, Cyclopentyl (2S)-2-amino-4-{6-[(4-{[(7R)-8-cyclopentyl-7-ethyl-5-methyl-6-oxo-5,6,7,8-tetrahydropteridin-2-yl]amino}-3-methoxybenzoyl)amino]-3-azabicyclo[3.1.01]hex-3-yl}butanoate] | < 100 | < 100 | – | –
7 | CC[C@@H]1C(=O)N(C)c2cnc(Nc3ccc(C(=O)Nc4ccc(CCC[C@H](N)C(=O)OC5CCCC5)cc4)cc3OC)nc2N1C1CCCC1 [Example 19, Cyclopentyl 5-{4-[(4-{[(7R)-8-cyclopentyl-7-ethyl-5-methyl-6-oxo-5,6,7,8-tetrahydro-pteridin-2-yl]amino}-3-methoxybenzoyl)amino]phenyl}-L-norvalinate] | < 100 | < 100 | – | –
8 | CC[C@@H]1C(=O)N(C)c2cnc(Nc3ccc(C(=O)Nc4ccc(/C=C/C[C@H](N)C(=O)OC5CCCC5)cc4)cc3OC)nc2N1C1CCCC1 [Example 20, Cyclopentyl (2S,4E)-2-amino-5-{4-[(4-{[(7R)-8-cyclopentyl-7-ethyl-5-methyl-6-oxo-5,6,7,8-tetrahydropteridin-2-yl]amino}-3-methoxybenzoyl)amino]phenyl}pent-4-enoate] | < 100 | < 100 | – | –
9 | CC[C@@H]1C(=O)N(C)c2cnc(Nc3ccc(C(=O)NC4CCN(CC[C@H](N)C(=O)OC5CCCC5)CC4)cc3OC)nc2N1C1CCCC1 [Example 22, Cyclopentyl (2S)-2-amino-4-{4-[(4-{[(7R)-8-cyclopentyl-7-ethyl-5-methyl-6-oxo-5,6,7,8-tetrahydropteridin-2-yl]amino}-3-methoxybenzoyl)amino]piperidin-1-yl}butanoate] | < 100 | < 100 | 6 | 0.09
10 | CC[C@@H]1C(=O)N(C)c2cnc(Nc3ccc(C(=O)NC4CCN(CCC[C@H](N)C(=O)OC(C)(C)C)CC4)cc3OC)nc2N1C1CCCC1 [Example 23, tert-butyl 5-{4-[(4-{[(7R)-8-cyclopentyl-7-ethyl-5-methyl-6-oxo-5,6,7,8-tetrahydropteridin-2-yl]amino}-3-methoxybenzoyl)amino]piperidin-1-yl}-L-norvalinate] | < 100 | < 100 | – | –
11 | CC[C@@H]1C(=O)N(C)c2cnc(Nc3ccc(C(=O)NC4CCN(CCC[C@H](N)C(=O)OC5CCCC5)CC4)cc3OC)nc2N1C1CCCC1 [Example 24, Cyclopentyl 5-{4-[(4-{[(7R)-8-cyclopentyl-7-ethyl-5-methyl-6-oxo-5,6,7,8-tetrahydropteridin-2-yl]amino}-3-methoxybenzoyl)amino]piperidin-1-yl}-L-norvalinate] | < 100 | < 100 | – | –
12 | CC[C@@H]1C(=O)N(C)c2cnc(Nc3ccc(C(=O)NC4CCN(CC[C@H](N)C(=O)OC(C)(C)C)CC4)cc3OC)nc2N1C1CCCC1 [Example 25, t-Butyl (2S)-2-amino-4-{4-[(4-{[(7R)-8-cyclopentyl-7-ethyl-5-methyl-6-oxo-5,6,7,8-tetrahydropteridin-2-yl]amino}-3-methoxybenzoyl)amino]piperidin-1-yl}butanoate] | < 100 | < 100 | – | –
13 | CC[C@@H]1C(=O)N(C)c2cnc(Nc3ccc(C(=O)NC4CCN(CC[C@H](N)C(=O)OC(C)(C)C)CC4)cc3C)nc2N1C1CCCC1 [Example 26, t-Butyl (2S)-2-amino-4-{4-[(4-{[(7R)-8-cyclopentyl-7-ethyl-5-methyl-6-oxo-5,6,7,8-tetra hydropteridin-2-yl]amino}-3-methylbenzoyl)amino]piperidin-1-yl}butanoate] | < 100 | < 100 | – | –
14 | CC[C@@H]1C(=O)N(C)c2cnc(Nc3ccc(C(=O)NC4CCN(CCC[C@@H](N)C(=O)OC5CCCC5)CC4)cc3OC)nc2N1C1CCCC1 [Example 27, Cyclopentyl 5-{4-[(4-{[(7R)-8-cyclopentyl-7-ethyl-5-methyl-6-oxo-5,6,7,8-tetrahydropteridin-2-yl]amino}-3-methoxybenzoyl)amino]piperidin-1-yl}-D-norvalinate] | < 100 | < 100 | – | –
15 | CC[C@@H]1C(=O)N(C)c2cnc(Nc3ccc(C(=O)NC4CCN(CC[C@H](N)C(=O)OC5CCCC5)CC4)cc3C)nc2N1C1CCCC1 [Example 28, Cyclopentyl (2S)-2-amino-4-(4-[(4-{[(7R)-8-cyclopentyl-7-ethyl-5-methyl-6-oxo-5,6,7,8-tetra hydropteridin-2-yl]amino}-3-methylbenzoyl)amino]piperidin-1-yl}butanoate] | < 100 | < 100 | – | –
16 | CC[C@@H]1C(=O)N(C)c2cnc(Nc3ccc(C(=O)NC4CCN(CC[C@H](N)C(=O)OC(C)(C)C)CC4)cc3F)nc2N1C1CCCC1 [Example 29, t-Butyl (2S)-2-amino-4-{4-{(4-{[(7R)-8-cyclopentyl-7-ethyl-5-methyl-6-oxo-5,6,7,8-tetrahydropteridin-2-yl]amino}-3-fluorobenzoyl)amino]piperidin-1-yl}butanoate] | < 100 | < 100 | – | –
17 | CC[C@@H]1C(=O)N(C)c2cnc(Nc3ccc(C(=O)NC4CCN(CC[C@H](N)C(=O)OC5CCCC5)CC4)cc3F)nc2N1C1CCCC1 [Example 30, Cyclopentyl (2S)-2-amino-4-{4-[(4-{[(7R)-8-cyclopentyl-7-ethyl-5-methyl-6-oxo-5,6,7,8-tetra hydropteridin-2-yl]amino}-3-fluorobenzoyl)amino]piperidin-1-yl}butanoate] | < 100 | < 100 | – | –
18 | CC[C@@H]1C(=O)N(C)c2cnc(Nc3ccc(C(=O)NC4CCN(CC[C@@H](N)C(=O)OC5CCCC5)CC4)cc3OC)nc2N1C1CCCC1 [Example 31, Cyclopentyl (2R)-2-amino-4-{4-[(4-{((7R)-8-cyclopentyl-7-ethyl-5-methyl-6-oxo-5,6,7,8-tetra hydropteridin-2-yl]amino}-3-methoxybenzoyl)amino]piperidin-1-yl}butanoate] | < 100 | < 100 | – | –
